Experimental findings from ChEMBL document CHEMBL1201862, “PubChem BioAssay data set” (2004) are described below.

Test systems include BT-549; CAKI-1; COLO 205; HOP-62; HOP-92; HT-29; MDA-MB-231; MDA-N; Malme-3M; NCI-H23; NCI-H522; OVCAR-4; RPMI-8226; SF-295; SK-MEL-28; SNB-19; SNB-75; TK-10; UACC-257; UACC-62.
Holding throughout (experiment): growth of human tumour cells (NCI), 48 h

Structures are written as SMILES.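 Grown in 96-well plates, cells were treated for 48 hours with each compound at five concentrations. Insufficient inhibition: endpoint recorded as highest concentration tested. Abbreviation: GI50, concentration required for 50% inhibition of growth.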 Calls of active or inactive are those of the source. No stated cut-off is given here; in the data, active = GI50 up to about 1.1 µM and inactive = higher. A value given as a limit tells only on which side of the number the result lay.

With `O=C1Nc2ccc(S(=O)(=O)NCCO)cc2/C1=C1/Nc2ccccc2C1=O`, the GI50 in the assay with BT-549 was 3.98 µM (inactive); with CAKI-1, > 100 µM (inactive); in the assay on COLO 205, 2.82 µM (inactive); in the assay with HOP-62, 16.2 µM (inactive); with HOP-92, 13.8 µM (inactive); in the assay on HT-29, > 100 µM (inactive). In addition, the GI50 with MDA-MB-231 was 12 µM (inactive); with MDA-N it was > 100 µM (inactive); in the assay on Malme-3M, 40.8 µM (inactive); with NCI-H23, 28.4 µM (inactive); in the assay on NCI-H522, 1.86 µM (inactive); in the assay with OVCAR-4, 3.06 µM (inactive). Besides, the GI50 in the assay with RPMI-8226 was 92.5 µM (inactive); in the assay on SF-295, 42 µM (inactive); in the assay with SK-MEL-28, > 100 µM (inactive); with SNB-19, 8.81 µM (inactive); in the assay on SNB-75 it was 1.97 µM (inactive); in the assay with TK-10 it was 18 µM (inactive). The GI50 was > 100 µM (inactive) in the assay with UACC-257 and 7.18 µM (inactive) with UACC-62.
For `O=C1Nc2ccc([N+](=O)[O-])cc2/C1=N/NC(=S)Nc1ccc([N+](=O)[O-])cc1`, the GI50 in the assay with BT-549 is 16.4 µM (inactive); in the assay with CAKI-1, 21.6 µM (inactive); in the assay on COLO 205, 36 µM (inactive); in the assay on HOP-62 it was 22.6 µM (inactive); in the assay with HOP-92, 18.5 µM (inactive); in the assay with HT-29, 26.7 µM (inactive). The GI50 is 24.7 µM (inactive) in the assay on MDA-MB-231; 17.9 µM (inactive) with MDA-N; 33.3 µM (inactive) in the assay on Malme-3M; 19.9 µM (inactive) in the assay on NCI-H23; 30.9 µM (inactive) in the assay with NCI-H522; 19.3 µM (inactive) with OVCAR-4. The GI50 is 34.9 µM (inactive) with RPMI-8226; 19.8 µM (inactive) in the assay with SF-295; 26.5 µM (inactive) in the assay with SK-MEL-28; 26.2 µM (inactive) with SNB-19; 21.8 µM (inactive) in the assay with SNB-75; 24.7 µM (inactive) in the assay on TK-10. Besides, the GI50 in the assay on UACC-257 was 20.8 µM (inactive); in the assay with UACC-62, 21.1 µM (inactive).
`CC1(C)CCC(C)(C)c2cc(NC(=O)c3ccc(C(=O)O)cc3)ccc21` [TAMIBAROTENE]: the GI50 with BT-549 is 25.7 µM (inactive); with CAKI-1, 47.6 µM (inactive); in the assay with COLO 205, 23.9 µM (inactive); with HOP-62, 23.6 µM (inactive); with HOP-92, 24.7 µM (inactive); in the assay with HT-29, 25.8 µM (inactive). For the same molecule, the GI50 was > 49.1 µM (inactive) in the assay with MDA-MB-231; 25.6 µM (inactive) in the assay on MDA-N; 17.9 µM (inactive) with Malme-3M; 23.2 µM (inactive) in the assay with NCI-H23; 36.6 µM (inactive) with NCI-H522; 31.1 µM (inactive) with OVCAR-4. In addition, the GI50 in the assay on RPMI-8226 is 20.4 µM (inactive); in the assay on SF-295, 22.6 µM (inactive); with SK-MEL-28 it was > 48.3 µM (inactive); with SNB-19, 32.8 µM (inactive); in the assay on SNB-75 it was > 100 µM (inactive); in the assay on TK-10, 25.1 µM (inactive). In addition, the GI50 in the assay with UACC-257 is 29.4 µM (inactive); in the assay on UACC-62 it was 16.5 µM (inactive).
For the molecule `N#CC1=C(N)N(/N=C/c2ccccc2)C(c2ccccc2)C1(C#N)C#N` (stereo not given), the GI50 in the assay on BT-549 is 14.6 µM (inactive); in the assay on CAKI-1, 4.61 µM (inactive); with COLO 205 it was 2.19 µM (inactive); in the assay with HOP-62, 16.8 µM (inactive); in the assay with HOP-92, 2.98 µM (inactive); in the assay with HT-29 it was 4 µM (inactive). Also, the GI50 with MDA-MB-231 was 17 µM (inactive); with MDA-N, 16.1 µM (inactive); with Malme-3M, 2.07 µM (inactive); in the assay on NCI-H23, 17.9 µM (inactive); in the assay on NCI-H522, 4.38 µM (inactive); with OVCAR-4, 14.9 µM (inactive). The GI50 in the assay on RPMI-8226 is 4.94 µM (inactive); in the assay on SF-295 it was 17.1 µM (inactive); in the assay on SK-MEL-28 it was 4.79 µM (inactive); in the assay with SNB-19, 23.1 µM (inactive); in the assay on SNB-75, 16.9 µM (inactive); in the assay with TK-10 it was 6.3 µM (inactive). In addition, the GI50 with UACC-257 was 9.38 µM (inactive); in the assay with UACC-62, 13.5 µM (inactive).
Regarding `ClCCCCCc1c2nc(c(CCCCCCl)c3ccc([nH]3)c(CCCCCCl)c3nc(c(CCCCCCl)c4ccc1[nH]4)C=C3)C=C2`, the GI50 in the assay on BT-549, in the assay with CAKI-1, in the assay on COLO 205, with HOP-62, in the assay with HOP-92 and in the assay with HT-29 was > 100 µM (inactive) each time. The GI50 in the assay with MDA-MB-231, with MDA-N, in the assay on Malme-3M, with NCI-H23, in the assay on NCI-H522 and with OVCAR-4 was > 100 µM (inactive) in each case. The GI50 is > 100 µM (inactive) in the assay on RPMI-8226; > 100 µM (inactive) in the assay with SF-295; > 100 µM (inactive) in the assay with SK-MEL-28; > 100 µM (inactive) with SNB-19; 83.4 µM (inactive) with SNB-75; > 100 µM (inactive) in the assay on TK-10. Besides, the GI50 in the assay on UACC-257 and in the assay with UACC-62 was > 100 µM (inactive) throughout.
As to `COc1c(C)c(C/C=C(\C)CCCCO[Si](c2ccccc2)(c2ccccc2)C(C)(C)C)c(OC)c(OC)c1OC`, the GI50 is > 46.5 µM (inactive) with BT-549; 1.84 µM (inactive) in the assay with CAKI-1; 20.6 µM (inactive) with COLO 205; 25.1 µM (inactive) in the assay with HOP-62; > 31.6 µM (inactive) in the assay on HOP-92; > 46.5 µM (inactive) with HT-29. Moreover, the GI50 is > 100 µM (inactive) in the assay on MDA-MB-231; > 46.5 µM (inactive) in the assay with MDA-N; > 100 µM (inactive) in the assay on Malme-3M; 19.6 µM (inactive) in the assay with NCI-H23; 50.5 µM (inactive) in the assay with NCI-H522; 28.1 µM (inactive) in the assay on OVCAR-4. Moreover, the GI50 in the assay on RPMI-8226 is 39.9 µM (inactive); in the assay with SF-295, > 46.5 µM (inactive); in the assay on SK-MEL-28, > 100 µM (inactive); with SNB-19 it was > 46.5 µM (inactive); with SNB-75, > 46.3 µM (inactive); with TK-10, > 31.6 µM (inactive). The GI50 with UACC-257 and with UACC-62 was > 46.5 µM (inactive) each time.
As for `CCN(CC)c1nc(N(C)C)c2ccc(OC)cc2n1`, the GI50 in the assay with BT-549 is 22.8 µM (inactive); in the assay on CAKI-1, 22.9 µM (inactive); in the assay with COLO 205, 7.55 µM (inactive); with HOP-62 it was 19.7 µM (inactive); in the assay with HOP-92, 18.5 µM (inactive); in the assay on HT-29, 4.12 µM (inactive). Besides, the GI50 is 17.1 µM (inactive) with MDA-MB-231; 8.49 µM (inactive) in the assay on MDA-N; 18.3 µM (inactive) in the assay with Malme-3M; 15.1 µM (inactive) in the assay on NCI-H23; 11.7 µM (inactive) in the assay with NCI-H522; 25.8 µM (inactive) in the assay on OVCAR-4. For the same molecule, the GI50 in the assay with RPMI-8226 is 10.1 µM (inactive); in the assay with SF-295, 17.2 µM (inactive); with SK-MEL-28, 12.5 µM (inactive); in the assay on SNB-19, 20 µM (inactive); with SNB-75, 15.6 µM (inactive); with TK-10, 24.5 µM (inactive). For the same molecule, the GI50 in the assay with UACC-257 was 11.5 µM (inactive); in the assay with UACC-62, 6.65 µM (inactive).
With `Cc1cc(CS(=O)(=O)/C=C/c2ccccc2[N+](=O)[O-])c(CS(=O)(=O)/C=C/c2ccccc2[N+](=O)[O-])cc1C`, the GI50 was 7.41 µM (inactive) in the assay on BT-549; 35.7 µM (inactive) in the assay on CAKI-1; > 100 µM (inactive) in the assay on COLO 205; 19.1 µM (inactive) with HOP-62; 33.2 µM (inactive) in the assay with HOP-92; > 61.7 µM (inactive) in the assay on HT-29. In addition, the GI50 was 16.4 µM (inactive) in the assay on MDA-MB-231; > 27.9 µM (inactive) in the assay on MDA-N; 28 µM (inactive) in the assay on Malme-3M; 17.7 µM (inactive) with NCI-H23; 23.7 µM (inactive) in the assay on NCI-H522; 7.98 µM (inactive) in the assay with OVCAR-4. The GI50 is 9.42 µM (inactive) in the assay on RPMI-8226; 16.9 µM (inactive) in the assay with SF-295; 68.7 µM (inactive) with SK-MEL-28; 28.1 µM (inactive) with SNB-19; 5.27 µM (inactive) with SNB-75; 35.4 µM (inactive) in the assay with TK-10. The GI50 in the assay with UACC-257 was > 65 µM (inactive); in the assay on UACC-62 it was 23.6 µM (inactive).
Turning to `CC(=O)O[C@H]1CC[C@H]2[C@@H]3CCC4C(C)=NNC(=O)C4[C@H]3CC[C@]12C` (stereo not given in full), the GI50 in the assay with BT-549 was > 45.3 µM (inactive); with CAKI-1, > 90.2 µM (inactive); in the assay on COLO 205 it was > 100 µM (inactive); with HOP-62, 19.8 µM (inactive); in the assay on HOP-92, 37.9 µM (inactive); in the assay with HT-29, > 100 µM (inactive). In addition, the GI50 in the assay on MDA-MB-231 was 33.3 µM (inactive); in the assay on MDA-N, > 100 µM (inactive); with Malme-3M, 99.8 µM (inactive); in the assay with NCI-H23, > 60.7 µM (inactive); in the assay on NCI-H522 it was 34 µM (inactive); with OVCAR-4, > 100 µM (inactive). For the same molecule, the GI50 with RPMI-8226 was > 100 µM (inactive); in the assay with SF-295, 41.5 µM (inactive); in the assay on SK-MEL-28, > 100 µM (inactive); in the assay on SNB-19, 33.5 µM (inactive); with SNB-75, 14.2 µM (inactive); with TK-10, > 76.6 µM (inactive). For the same molecule, the GI50 in the assay with UACC-257 and with UACC-62 was > 100 µM (inactive) throughout.
On to `Cc1c(-c2ccccc2)[nH]c2ccc(Cl)cc2c1=O`, for which the GI50 is 62.2 µM (inactive) in the assay on BT-549; < 0.01 µM (active) in the assay with CAKI-1; 70.6 µM (inactive) in the assay with COLO 205; 19.1 µM (inactive) in the assay on HOP-62; 20.4 µM (inactive) with HOP-92; 40.8 µM (inactive) in the assay with HT-29. The GI50 with MDA-MB-231 was 19 µM (inactive); with MDA-N, 17.4 µM (inactive); with Malme-3M, 18.3 µM (inactive); with NCI-H23, 23.4 µM (inactive); in the assay with NCI-H522, 21.3 µM (inactive); in the assay with OVCAR-4 it was 21.8 µM (inactive). The GI50 is 15.2 µM (inactive) with RPMI-8226; 30.8 µM (inactive) with SF-295; 40.6 µM (inactive) with SK-MEL-28; > 100 µM (inactive) in the assay with SNB-19; 26 µM (inactive) with SNB-75; 36.6 µM (inactive) with TK-10. The values for the GI50 in the assay with UACC-257 and in the assay on UACC-62 were 27.8 µM (inactive) and 34.8 µM (inactive), respectively.
